{
  "source": "patent US10300052B2",
  "about": "“Methods for increasing CFTR activity” (THE UAB RESEARCH FOUNDATION, priority 2012, dated 2019)",
  "key": {"G551D-CFTR": {"molecular_target": "G551D-CFTR (Homo sapiens, UniProt P13569, G551D)", "sequence (P13569 whole entry G551D)": "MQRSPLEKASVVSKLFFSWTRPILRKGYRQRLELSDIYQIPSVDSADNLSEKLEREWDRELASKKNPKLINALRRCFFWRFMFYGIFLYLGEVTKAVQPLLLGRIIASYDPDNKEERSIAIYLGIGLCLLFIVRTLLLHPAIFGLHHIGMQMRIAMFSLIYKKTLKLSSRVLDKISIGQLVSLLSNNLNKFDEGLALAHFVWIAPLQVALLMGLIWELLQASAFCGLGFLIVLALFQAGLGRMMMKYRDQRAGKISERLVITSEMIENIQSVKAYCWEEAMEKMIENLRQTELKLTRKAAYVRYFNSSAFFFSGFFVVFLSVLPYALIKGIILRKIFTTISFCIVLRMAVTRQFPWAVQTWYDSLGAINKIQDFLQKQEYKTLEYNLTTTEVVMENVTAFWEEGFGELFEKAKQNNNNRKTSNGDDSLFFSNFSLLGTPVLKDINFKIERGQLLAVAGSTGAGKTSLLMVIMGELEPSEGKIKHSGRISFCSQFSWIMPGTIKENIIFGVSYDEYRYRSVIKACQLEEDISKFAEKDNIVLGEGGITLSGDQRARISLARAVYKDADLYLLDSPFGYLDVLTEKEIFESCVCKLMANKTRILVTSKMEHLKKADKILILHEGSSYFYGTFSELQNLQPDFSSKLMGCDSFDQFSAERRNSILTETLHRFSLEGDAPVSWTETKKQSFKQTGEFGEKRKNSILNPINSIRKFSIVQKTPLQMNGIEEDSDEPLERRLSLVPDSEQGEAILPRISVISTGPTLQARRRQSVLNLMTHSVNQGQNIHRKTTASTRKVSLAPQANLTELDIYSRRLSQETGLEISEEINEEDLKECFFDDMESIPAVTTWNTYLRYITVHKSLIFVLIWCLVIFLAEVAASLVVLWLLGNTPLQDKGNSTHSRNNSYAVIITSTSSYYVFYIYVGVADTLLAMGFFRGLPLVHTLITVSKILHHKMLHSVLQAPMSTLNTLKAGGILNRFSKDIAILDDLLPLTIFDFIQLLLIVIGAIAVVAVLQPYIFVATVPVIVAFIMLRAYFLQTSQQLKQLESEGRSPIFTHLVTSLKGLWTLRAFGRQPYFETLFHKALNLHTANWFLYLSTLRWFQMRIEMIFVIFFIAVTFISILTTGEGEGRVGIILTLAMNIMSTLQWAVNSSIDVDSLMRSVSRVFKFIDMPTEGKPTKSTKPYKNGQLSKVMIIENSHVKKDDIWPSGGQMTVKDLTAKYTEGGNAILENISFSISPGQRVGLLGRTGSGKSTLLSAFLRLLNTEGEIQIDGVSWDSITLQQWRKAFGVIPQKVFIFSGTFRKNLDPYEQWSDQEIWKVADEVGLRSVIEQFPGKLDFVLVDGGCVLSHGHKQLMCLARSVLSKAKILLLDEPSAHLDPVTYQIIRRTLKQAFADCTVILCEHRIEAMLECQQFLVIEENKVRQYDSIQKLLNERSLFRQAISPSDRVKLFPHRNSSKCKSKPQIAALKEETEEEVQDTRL", "parameters": "host or cells: CF patients carrying G551D-CFTR (endogenous protein)", "conditions": "CF patients with G551D-CFTR; reported; cited from earlier work"}, "HBE cells": {"tested_on": "HBE cells", "experiment": "μOCT imaging of airway epithelial function in HBE cells containing WT-CFTR", "assay_type": "cell-based, human", "protocol": "ASL depth is shown as red bar. White scale bar=10 μm.\nFIGS. 4A-4D show the effects of CFTR activators on airway epithelial function in human bronchial epithelial cells by μOCT. Control HBE cells containing a defective CFTR (designated control, CF) and HBE cells containing a WT-CFTR (designated control and VX-770, wild-type) received vehicle alone (control; 0.2% DMSO) or ivacaftor (10 μM). FIGS. 4A-4D show ASL depth (FIG. 4A), PCL depth (FIG. 4B), cilia beat frequency (FIG. 4C), and mucociliary transport (MCT) rate (FIG. 4D) as quantified from μOCT images.\nFIGS. 5A-5D show the effects of CFTR activators on airway epithelial function in human bronchial epithelial cells by μOCT. […] CSE was applied apically and ivacaftor basolaterally. Cells were exposed to each condition for 24 hrs. ASL depth is shown as a dark bar. White scale bar=10 μm. FIGS. 5B-5D show ASL depth (FIG. 5B), cilia beat frequency (FIG. 5C), and mucociliary transport (MCT) rate (FIG. 5D) as quantified from μOCT images. Data are derived from 5 measures per well, and 3 wells per condition.\nThe effect of CFTR activators was evaluated using μOCT imaging in HBE cells (FIGS. 4A-4D). […] Mucus and the PCL layer that together comprise the airway surface liquid (ASL) layer can also be clearly visualized. As shown in FIGS. 4A-4D, from top to bottom, the air has no μOCT signal, while the mucus layer appears heterogeneous with high μOCT signal intensity. The PCL gel has a low μCT signal intensity compared with the mucus and monolayer and includes ciliary structures. The air-liquid interface, mucus-PCL interface, and apical cell surface are clearly defined so that ASL and PCL heights can be directly measured with submicrometer resolution. In addition to the different layers, cilia tips can be readily detected by μOCT, as they are brighter than the surrounding PCL and mucus. The tips maintain contact with the deep surface of mucus blanket and lift the mucus nearby by a few hundred nanometers during the effective stroke.\nThe results in this example, illustrated in FIGS. 4A-4D, confirm the results shown above that CFTR activators increase the activity of WT-CFTR. In FIGS. 4A-4D, control HBE cells containing a defective CFTR (designated control, CF) were used along with HBE cells containing a WT-CFTR (designated control and VX-770, wild-type). Control cells received vehicle alone (0.2% DMSO); ivacaftor was used in all cases at 10 μM. […] In terms of PCL depth, the PCL only extends approximately 7 microns (corresponding to the depth of the full length cilia); further increases are difficult to detect. For CBF, the rate of CBF may not be rate limiting in all conditions. For example, if the cilia were beating against thick mucus (caused for example by mucus overproduction or the inability to clear mucus normally), the CBF would be slower. However, in this assays the determination of CBF is made versus a normal control making meaning an increase in CBF may not be detected in all cases.\nData in FIGS. 5A-5D are derived from 5 measurements per well, with three wells per condition. In FIGS. 5A-5D, all cells contained WT-CFTR; control cells received DMSO vehicle ([…]), CSE indicates cells received 2% CSE extract administered apically; CSE indicates cells received 2% CSE extract administered apically and 10 μM ivacaftor administered basolaterally; VX-770 indicates cells received 10 μM ivacaftor administered basolaterally. All data were derived from μOCT images as described herein.\nThe μOCT system is a spectral-domain OCT implementation with several improvements to standard OCT that yield high resolution in both lateral and axial directions. The general layout and axial resolution characterization have been described (Liu et al., PLOSOne, 8(1), E54473-2013). A super-continuum source (Fianium SC450) provides the high-bandwidth, short coherence length light necessary for high axial resolution ([…]). […]"}, "[1]": {"tested_on": "CFBE41o-cells without WT CFTR complementation (parental cells)", "experiment": "Short-circuit current (Isc) in Ussing chambers, parental CFBE41o- cells without detectable CFTR expression", "assay_type": "cell-based, human", "conditions": "ivacaftor 10 μM after amiloride 100 μM and forskolin 100 nM; parental cells without detectable CFTR expression (FIG. 1A)", "protocol": "CFBE41o-cells complemented by stable expression of WT-CFTR (by a lentivirus promoter) are shown in comparison to CFBE41o-cells without WT CFTR complementation (parental cells). *P<0.05, **P<0.005, n=5/condition.\nThe CFTR potentiator ivacaftor was chosen as an exemplary CFTR activator. The activity of ivacaftor was examined in WT-CFTR expressing cells.\nShort-circuit current (Isc) was measured under voltage clamp conditions using MC8 voltage clamps and P2300 Ussing chambers (Physiologic Instruments, San Diego, Calif.) as previously described (2). Monolayers were initially bathed on both sides with identical Ringer's solutions containing (in mM) 115 NaCl, 25 NaHCO3, 2.4 KH2PO4, 1.24 K2HPO4, 1.2 CaCl2, 1.2 MgC2, 10 D-glucose (pH 7.4). Bath solutions were vigorously stirred and gassed with 95%02:5% CO2. Short-circuit current measurements were obtained using an epithelial voltage clamp (Physiologic Instruments). A one-second three-mV pulse was imposed every 10 seconds to monitor resistance calculated using Ohm's law. Where indicated, the mucosal bathing solution was changed to a low Cl-solution containing 1.2 NaCl and 115 Na+ gluconate, and all other components as above. Amiloride (100 μM) was added to block residual Na+ current, followed by the agonists forskolin, ivacaftor, and ATP as indicated (minimum five-min observation at each concentration). […]"}},
  "note": "Entries after “also recorded” stand apart in the source; their conditions may differ.",
  "data": [
    {"smiles": "CC(C)(C)c1cc(C(C)(C)C)c(NC(=O)c2c[nH]c3ccccc3c2=O)cc1O", "note": "[ivacaftor]", "values": [
      {"measurement": "measures of CFTR activity", "setting": "G551D-CFTR", "value": "improved"},
      {"measurement": "pulmonary function", "setting": "G551D-CFTR", "value": "enhanced"},
      {"measurement": "MCT", "setting": "HBE cells; 2% CSE apically plus ivacaftor 10 μM basolaterally, 24 hrs (FIG. 5D)", "value": "increased MCT to that seen in the control cells"},
      {"measurement": "ASL depth", "setting": "HBE cells; 2% CSE apically plus ivacaftor 10 μM basolaterally, 24 hrs, vs CSE (FIG. 5B)", "value": "significantly increased"},
      {"measurement": "PCL depth", "setting": "HBE cells; ivacaftor 10 μM, as compared to control CF HBE cells (FIG. 4B)", "value": "increased"},
      {"measurement": "CBF", "setting": "HBE cells; ivacaftor 10 μM, as compared to control CF HBE cells (FIG. 4C)", "value": "increased"},
      {"measurement": "overall MCT", "setting": "HBE cells; ivacaftor 10 μM, as compared to control wild-type and control CF cells (FIG. 4D)", "value": "increased significantly"},
      {"measurement": "PCL depth", "setting": "HBE cells; ivacaftor 10 μM, in comparison to control wild-type (FIG. 4B)", "value": "not increased in a statistically significant manner"},
      {"measurement": "CBF", "setting": "HBE cells; ivacaftor 10 μM, in comparison to control wild-type (FIG. 4C)", "value": "not increased in a statistically significant manner"},
      {"measurement": "ASL depth", "setting": "HBE cells; ivacaftor 10 μM, vs control wild-type and control CF HBE cells (FIG. 4A)", "value": "increased ASL depth significantly above control"},
      {"measurement": "ASL depth", "setting": "HBE cells; ivacaftor alone 10 μM basolaterally, 24 hrs, vs control (FIG. 5B)", "value": "significantly increased"},
      {"measurement": "MCT", "setting": "HBE cells; ivacaftor alone 10 μM basolaterally, 24 hrs, vs control (FIG. 5D, FIG. 2D)", "value": "robust enhancement; also recorded: significantly increased"},
      {"measurement": "anion transport (Isc)", "setting": "[1]", "value": "no activity"}
    ]}
  ]
}
